From US20240148740A1, “COMBINATION OF AN AHR INHIBITOR WITH A PDX INHIBITOR OR DOXORUBICINE” (Ikena Oncology, Inc., priority 2020, published 2024)

Columns and labels:
AHR [1] = target: T1, AHR (Homo sapiens, UniProt P35869); assay: Phase 1 study, pharmacodynamic whole blood assay of AHR target genes; assay type: in vivo; conditions: all subjects in the 200 mg, 400 mg, and 800 mg cohorts
T1 sequence (P35869 11-848): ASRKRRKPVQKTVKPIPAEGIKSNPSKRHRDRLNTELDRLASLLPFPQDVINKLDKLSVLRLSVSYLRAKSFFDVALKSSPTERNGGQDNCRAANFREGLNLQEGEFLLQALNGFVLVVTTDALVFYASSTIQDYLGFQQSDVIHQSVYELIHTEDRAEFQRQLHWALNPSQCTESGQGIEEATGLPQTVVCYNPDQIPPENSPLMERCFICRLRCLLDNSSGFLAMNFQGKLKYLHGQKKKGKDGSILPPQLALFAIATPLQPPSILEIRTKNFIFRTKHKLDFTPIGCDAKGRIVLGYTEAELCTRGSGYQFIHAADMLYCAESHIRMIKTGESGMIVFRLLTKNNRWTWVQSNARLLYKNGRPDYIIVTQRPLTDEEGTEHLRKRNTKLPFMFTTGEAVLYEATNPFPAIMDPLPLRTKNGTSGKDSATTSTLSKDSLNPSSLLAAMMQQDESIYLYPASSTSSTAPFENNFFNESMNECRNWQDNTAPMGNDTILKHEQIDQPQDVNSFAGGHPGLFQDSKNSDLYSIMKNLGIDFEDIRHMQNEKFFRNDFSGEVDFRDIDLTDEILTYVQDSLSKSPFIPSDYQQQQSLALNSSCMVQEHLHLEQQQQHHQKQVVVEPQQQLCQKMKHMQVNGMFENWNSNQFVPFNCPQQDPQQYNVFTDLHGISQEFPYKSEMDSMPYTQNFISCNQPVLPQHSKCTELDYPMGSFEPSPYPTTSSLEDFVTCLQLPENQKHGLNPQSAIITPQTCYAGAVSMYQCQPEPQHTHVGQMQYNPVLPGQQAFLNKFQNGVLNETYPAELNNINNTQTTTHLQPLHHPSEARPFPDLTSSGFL
From the text: Because the starting dose and any higher dose of Compound A is expected to be near or at the pharmacologically active range, each subject is required to have blood drawn and tumor biopsies for secondary and exploratory pharmacodynamic endpoints. The blood and tumor tissue samples are used to confirm AHR target engagement. Individual subjects can be exempted from the tumor biopsy requirement upon discussion and prior agreement by the Sponsor. The initial sampling strategy is based on the predicted human pharmacodynamics of Compound A. If in the course of evaluating the pharmacodynamics, it is determined that an alternative sampling scheme would be more informative, then that alternative sampling scheme can be implemented if the total amount of blood, blood draws, and tumor biopsies obtained for pharmacodynamics is not increased. Moreover, the total number of samples can be decreased at any time if the initial sampling scheme is considered unnecessarily intensive.

AHR [2] = target: T1, AHR; assay: CYP1B1 gene expression in human whole blood exposed ex vivo; assay type: cell-based; set-up: endogenous in cells; conditions: Compound A concentrations >0.5 μM; both donors; basal and ligand activated (L-kynurenine) conditions; 24 hours
Method: To further examine the effects of Compound A on basal and ligand-activated AHR-dependent gene expression in human immune cells, blood samples from 2 healthy human donors were exposed ex vivo to Compound A in the presence or absence of […] L-kynurenine to activate AHR. After 24 hours, cells were evaluated for CYP1B1 gene expression. […] In both donors, Compound A concentrations >0.5 μM inhibited CYP1B1 gene expression by greater than 50% under basal and ligand activated conditions.

human T cells = assay: Human T cell assays (summary); assay type: cell-based
Method: AHR plays a key role in immune cells and its' inhibition is proposed to reverse immune suppression and activate T cells. The ability of Compound A to inhibit AHR-dependent CYP1A1 expression and cytokine production was assessed in primary human T cells. AHR directly regulates the expression of the immune suppressive cytokine IL-22. Human T cells isolated from healthy donor PBMCs were activated with CD3/CD28 tetramer and incubated for 24 hours with Compound A. Cell pellets were processed for RNA isolation and CYP1A1 analysis by quantitative reverse-transcriptase polymerase chain reaction. For the cytokine analysis assay, CD3/CD28 activated T cells were treated with Compound A, and culture supernatants were collected after 48 hours for analysis of IL-22 levels using Meso Scale Discovery V-plex IL-22 plates. Compound A inhibited AHR-dependent gene expression in activated human T cells by decreasing expression of CYP1A1 in a concentration--dependent manner.

[3] = Phase 1 study, interim cohort pharmacokinetics; assay type: in vivo, human
Method: Serial blood samples are obtained to characterize the plasma PK of Compound A and its major active metabolites. The initial sampling strategy is based on the predicted human PK of this compound. If in the course of evaluating the PK, it is determined that an alternative sampling scheme would be more informative, then that alternative sampling scheme can be implemented if the total amount of blood and blood draws obtained for PK is not increased. Moreover, the total number of samples can be decreased at any time if the initial sampling scheme is considered unnecessarily intensive.

AHR [4] = target: T2, AHR (Mus musculus, UniProt P30561); assay: Pharmacodynamics: CYP1A1 mRNA in murine liver and spleen after VAG539; assay type: in vivo
T2 sequence (P30561 10-805): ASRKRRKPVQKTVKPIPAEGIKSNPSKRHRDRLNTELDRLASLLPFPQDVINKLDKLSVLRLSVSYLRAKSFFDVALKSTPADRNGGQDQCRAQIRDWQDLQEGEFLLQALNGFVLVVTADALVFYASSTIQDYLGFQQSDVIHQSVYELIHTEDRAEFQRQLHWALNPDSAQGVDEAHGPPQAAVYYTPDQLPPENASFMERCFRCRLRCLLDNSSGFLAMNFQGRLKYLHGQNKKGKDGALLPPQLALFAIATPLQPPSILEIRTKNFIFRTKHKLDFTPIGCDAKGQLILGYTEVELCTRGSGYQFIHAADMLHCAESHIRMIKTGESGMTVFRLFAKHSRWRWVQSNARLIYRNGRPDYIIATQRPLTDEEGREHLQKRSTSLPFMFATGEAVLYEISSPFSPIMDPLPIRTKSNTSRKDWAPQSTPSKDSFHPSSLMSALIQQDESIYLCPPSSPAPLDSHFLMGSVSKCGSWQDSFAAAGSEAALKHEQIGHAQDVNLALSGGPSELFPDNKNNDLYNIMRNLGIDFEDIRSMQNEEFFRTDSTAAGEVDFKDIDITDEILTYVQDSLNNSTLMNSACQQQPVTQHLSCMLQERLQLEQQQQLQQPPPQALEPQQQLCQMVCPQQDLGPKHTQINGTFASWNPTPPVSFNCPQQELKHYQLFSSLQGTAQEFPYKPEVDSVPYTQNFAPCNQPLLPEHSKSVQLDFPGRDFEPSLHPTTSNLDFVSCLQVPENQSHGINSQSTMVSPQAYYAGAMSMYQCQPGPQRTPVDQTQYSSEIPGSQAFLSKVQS
Method: Mice were sacrificed at 4 and 10 hours postdose and RNA was extracted and gene expression of CYP1A1 and the housekeeping gene mouse glyceraldehyde 3-phosphate dehydrogenase were quantified. CYP1A1 mRNA expression levels for each dose group for liver and spleen tissues were normalized to the control group.

## CC(C)c1cnn2c(N[C@@H]3CCc4[nH]c5ccccc5c4C3)nc(-c3cncc(F)c3)nc12 [Compound A, (R)—N-(2-(5-fluoropyridin-3-yl)-8-isopropylpyrazolo[1,5-a][1,3,5]triazin-4-yl)-2,3,4,9-tetrahydro-1H-carbazol-3-amine]
AHR [1]
  inhibition of expression of AHR target gene CYP1B1: Robust inhibition
AHR [2]
  inhibition of CYP1B1 gene expression: greater than 50%
Human T cells
  T cell state: induces an activated T cell state
  pro-inflammatory cytokines, such as IL-2 and IL-9: increase
[3]; Cycle 2 Day 1 (C2D1)
  dose proportionality of PK: greater than dose proportional
[3]; interim cohort PK
  exposure with increase in dose: Increased exposure with increase in dose
AHR [4]; 25 mg/kg Compound A oral with VAG539, at 4 hours
  inhibition of CYP1A1 mRNA induction, spleen: complete inhibition
AHR [4]; 25 mg/kg Compound A oral, coadministered with 30 mg/kg VAG539
  inhibition of CYP1A1 mRNA increases induced by VAG539, liver: Complete inhibition
